According to patent US11389415B2, “Methods of regulating cannabinoid receptor activity-related disorders and diseases” (The United States of America as represented by the …, priority 2012, dated 2022):

What was measured:
[1] = target: GPR55 (Homo sapiens, UniProt Q9Y2T6); experiment: Cellular uptake of TocriFluor T1117 in HepG2 cells; type: cell-based; parameters: host or cells: HepG2 hepatocarcinoma cells; details: for effect of pretreatment on T1117 incorporation: HepG2, AM630 1 μM, WIN 55,212-2 1 μM (1 hour), AM251 1 μM (30 minutes)
[2] = system: HepG2 cells; experiment: [3H]-Thymidine incorporation assay in HepG2 cells; type: cell-based, human; details: for effect of pretreatment on (R,R′)-Fen-stimulated mitogenesis: 1 h pretreatment then (R,R′)-Fen 24 h; for effect on cell proliferation: compound alone; for effect of pretreatment on anti-proliferative effect of (R,R′)-MNF: 1 h pretreatment then (R,R′)-MNF 24 h; for % Change in HepG2 cells ([3H]-thymidine incorporation): 1 μM
Experimental: (§1) Maintenance and Treatment of Cell Lines. Human HepG2 hepatocarcinoma cells and human U87MG glioma cells (ATCC, Manassas, Va.) were maintained in EMEM medium supplemented with 1% L-glutamine, 1% sodium pyruvate, 1% penicillin/streptomycin, and 10% FBS (Hyclone, Logan, Utah). The human 1321N1 astrocytoma cells (European Collection of Cell Cultures, Sigma-Aldrich) were cultured in Dulbecco's modified Eagle's medium supplemented with 10% FBS and penicillin/streptomycin. All cell lines were cultured at 37° C. in 5% CO2, and the medium was replaced every 2-3 days.
(§2) Cells were seeded in 12-well plates at approximately 50,000 cells/well and incubated at 37° C. After 24 hours, the wells were rinsed with PBS and replaced with serum-free medium containing the appropriate concentration of the test compounds. After another 24-hour incubation at 37° C., 1 μCi of [^3H]-thymidine was added to each well and incubated at 37° C. for 16 hours. [^3H]-Thymidine incorporation into DNA was monitored after the cells were washed twice with PBS and then lysed in 600 μL of 0.1N NaOH for 30 minutes with shaking. The lysate was then mixed with 3 mL of liquid scintillation cocktail (Beckman Coulter, Inc., Brea, Calif.), and radioactivity was measured by liquid scintillation counting using Beckman Coulter LS6000IC Scintillation Counter. Data are shown as CPM incorporated compared to the control cells.

[3] = system: HepG2 cells; experiment: cAMP accumulation in HepG2 cells; type: cell-based, human; details: β-agonists at 10 μM
Experimental: cAMP Accumulation. HepG2 cells were seeded in 96-well plates and grown to confluency. […] The levels of cAMP accumulated in cells were determined and normalized to the amount of protein per well.

[4] = system: 1321N1 cells; experiment: Mitogenesis / [3H]-thymidine incorporation in 1321N1 cells; type: cell-based, human; details: for effect on proliferation / [3H]-thymidine incorporation: compound alone
Experimental: as §1
as §2, with “[^3H]-Thymidine Incorporation Assay. Cells” for “Cells”

[5] = system: U87MG cells; experiment: [3H]-Thymidine incorporation in U87MG cells; type: cell-based, human
Experimental: as §1, §2

[6] = system: rat C6 glioma cells; experiment: 3H-Thymidine incorporation in rat C6 glioma cells; type: cell-based; details: for effect of preincubation on antiproliferative effect of MNF: C6 cells, ICI-118,551 3 nM, AM251 0.5 and 1 μM, AM630 0.5 μM, 30 minutes, then 20 nM MNF
Experimental: Cell culture. The rat-derived C6 glioma cell line was obtained from the American Type Culture Collection (Manassas, Va.). The cells were routinely maintained in DMEM supplemented with L-glutamine, 1% penicillin/streptomycin solution, and 10% FBS in a humidified CO2 incubator at 37° C.
3H-Thymidine incorporation. C6 glioma cells were seeded in 12-well plates at ˜5×10^4 cells/well and incubated for 24 hours followed by a second 24-hour incubation with various concentrations of MNF. Radiolabeled thymidine (10 Ci/mmol; PerkinElmer Life and Analytical Sciences, Waltham, Mass.) was added at 1 μCi per well for 16 hours and its incorporation into DNA was then measured. Each treatment group was performed in triplicate and three independent studies were carried out.

[7] = system: Akt and ERK1/2; experiment: phosphorylation of Akt and ERK1/2 in HepG2 cells (Western blot); type: cell-based, human; details: 1 μM, 5, 10 and 30 minutes
Experimental: Western Blotting. Cells were lysed with RIPA buffer containing EGTA and EDTA (Boston BioProducts, Ashland, Mass.). The lysis buffer was mixed with a protease inhibitor cocktail (Sigma-Aldrich). Protein concentrations were measured using the bicinchoninic acid reagent (Thermo-Pierce Biotechnology, Inc., Rockford, Ill.). […] Western blots were performed according to standard methods. The visualization of immunoreactive bands was performed using the ECL Plus Western Blotting Detection System (GE Healthcare, NJ) and their quantification was done by volume densitometry using Image J software and normalization to β-actin. […] The antibodies were used at a dilution recommended by the manufacturer.

Sequence of GPR55 (Q9Y2T6 whole entry): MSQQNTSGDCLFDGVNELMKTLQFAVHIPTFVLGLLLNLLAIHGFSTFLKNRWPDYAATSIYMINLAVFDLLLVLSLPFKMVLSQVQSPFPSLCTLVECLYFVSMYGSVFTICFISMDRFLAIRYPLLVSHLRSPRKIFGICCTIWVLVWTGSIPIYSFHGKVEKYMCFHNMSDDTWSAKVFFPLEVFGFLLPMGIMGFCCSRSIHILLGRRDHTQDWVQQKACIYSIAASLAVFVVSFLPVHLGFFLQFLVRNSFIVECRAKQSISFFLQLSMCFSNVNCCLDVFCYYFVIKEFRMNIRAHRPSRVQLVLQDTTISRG

Which “effect of pretreatment on T1117 incorporation” value [1] does the source give for `Cc1c(C(=O)c2cccc3ccccc23)c2cccc3c2n1[C@H](CN1CCOCC1)CO3` [WIN 55,212-2, reference compound] here?
The value was “markedly increased the rate of T1117 accumulation”.

And the “effect of pretreatment on (R,R′)-Fen-stimulated mitogenesis” value ([2]; HepG2 cells)?
The value was “canceled out the growth-promoting action of fenoterol”.

And the “effect on cell proliferation” value ([2]; HepG2 cells)?
The value was “reduced cell proliferation”.

Which results are given for `Cc1c(C(=O)NN2CCCCC2)nn(-c2ccc(Cl)cc2Cl)c1-c1ccc(-c2ccc(CCCNC(=O)c3ccc4c(c3)C(=O)OC43c4ccc(N(C)C)cc4Oc4cc(N(C)C)ccc43)cc2)cc1` [T1117]?
time of half-maximum incorporation of T1117 ([1]; HepG2 cells transfected with control siRNA): ~15 min; EC50 ([1]; serum-depleted cells, 37° C., 2.5-100 nM, read-out: T1117 concentration of half-maximal cellular incorporation): ~8 nM

`CCCCCCC(C)(C)c1ccc([C@@H]2C[C@H](O)CC[C@H]2CCCO)c(O)c1` [CP 55,940] was tested. Which “reduction of T1117 uptake” value ([1]; HepG2, 0.25 μM, 30-minutes pretreatment) did it give?
The value was 2.5 fold.

For `CC(C)NC[C@H](O)c1ccc(O)c(O)c1` [(R)-isoproterenol, reference compound], which EC50 ([2]; Homo sapiens, HepG2 cells, serum-free medium, 24 h, read-out: IC50/EC50 (μM): EC50 (ED50) for increase in [3H]-thymidine incorporation) is on record?
Its EC50 is 0.4 ± 0.08 µM.

And the “cAMP production” value [3]?
The value was “Neither (R)-isoproterenol nor (R,R′)-Fen, at 10 μM, elicited an increase in cAMP production”.

And the “effect on proliferation / [3H]-thymidine incorporation” value [4]?
The value was “reduced proliferation in 1321N1 cells”.

And the “effect on cellular proliferation” value ([5]; compound alone)?
The value was “had no effect on U87MG cells”.

And the inhibition at 0.02 µM ([6]; Rattus norvegicus, 20 nM, 24 hours, read-out: inhibition of C6 cell growth / reduction in mitogenesis)?
Its inhibition at 0.02 µM is 10 to 15%.

What about the “Akt and ERK activation” value [7] of the same compound?
The value was “induced a time-dependent increase in Akt and ERK activation”.

What does the source list for `COc1ccc(C(=O)c2c(C)n(CCN3CCOCC3)c3cc(I)ccc23)cc1` [AM630, 1-[2-(morpholin-4-yl)ethyl]-2-methyl-3-(4-methoxybenzoyl)-6-iodoindole]?
effect of pretreatment on T1117 incorporation [1]: largely inactive; effect of pretreatment on (R,R′)-Fen-stimulated mitogenesis ([2]; HepG2 cells): had no impact on the mitogenic responses of (R,R′)-Fen; effect of pretreatment on anti-proliferative effect of (R,R′)-MNF ([2]; HepG2 cells): completely inhibited the anti-proliferative effects of (R,R′)-MNF; effect of pretreatment on anti-proliferative action of (R,R′)-MNF [5]: partially blocked; effect of preincubation on antiproliferative effect of MNF [6]: had minimal effect against MNF signaling

With `C[C@H](Cc1cccc2ccccc12)NC[C@H](O)c1cc(O)cc(O)c1` [(R,R′)-1-naphthylFen, (R,R′)-1-naphthylfenoterol] as the compound, how does the “% Change in HepG2 cells ([3H]-thymidine incorporation)” value (“% Change in HepG2 cells” for short) ([2]; 24 h) read?
The value was “(R,R): −67.52%”.

What about the IC50 ([2]; Homo sapiens, HepG2, read-out: IC50/EC50 (μM): IC50 for inhibition of [3H]-thymidine incorporation) of the same compound?
Its IC50 is 0.21 ± 0.07 µM.

How did the “cellular incorporation of fluorescence” value ([1]; HepG2 cells, up to 1 hour) turn out when `CN(C)c1ccc2c(-c3ccc(C(=O)NCCCc4ccccc4)cc3C(=O)[O-])c3ccc(N(C)C)cc3[o+]c2c1` [TAMRA-PPA, 5′-TAMRA-3-phenylpropan-1-amine] was run?
Its value is “no significant incorporation of fluorescence”.

With `C[C@@H](Cc1ccc(O)cc1)NC[C@H](O)c1cc(O)cc(O)c1` [(R,S′)-Fen, fenoterol] as the compound, how does the “% Change in HepG2 cells” value ([2]; 24 h) read?
The value was 19.1%.

For `Cc1c(C(=O)NN2CCCCC2)nn(-c2ccc(Cl)cc2Cl)c1-c1ccc(I)cc1` [AM251, 1-(2,4-dichlorophenyl)-5-(4-iodophenyl)-4-methyl-N-(1-piperidyl)pyrazole-3-carboxamide, reference compound], which “effect of pretreatment on (R,R′)-Fen-stimulated mitogenesis” value ([2]; HepG2 cells) is on record?
Its value is “had no impact on the mitogenic responses of (R,R′)-Fen”.

What about the “effect of pretreatment on anti-proliferative effect of (R,R′)-MNF” value ([2]; HepG2 cells) of the same compound?
The value was “completely inhibited the anti-proliferative effects of (R,R′)-MNF”.

And the “effect of pretreatment on anti-proliferative action of (R,R′)-MNF” value [5]?
The value was “partially blocked”.

What about the “effect of preincubation on antiproliferative effect of MNF” value [6] of the same compound?
Its value is “rendered C6 cells refractory to the growth-inhibitory effect of MNF”.

Which results are given for `Cc1ccc(OCC(O)C(C)NC(C)C)c2c1CCC2` (stereo not drawn) [ICI 118,551, 3-(isopropylamino)-1-[(7-methyl-4-indanyl)oxy]butan-2-ol, reference compound]?
effect of pretreatment on (R,R′)-Fen-stimulated mitogenesis ([2]; HepG2 cells): significantly blocked (R,R′)-Fen-stimulated mitogenesis; effect of pretreatment on anti-proliferative effect of (R,R′)-MNF ([2]; HepG2 cells): refractory to ICI 118,551 pretreatment; effect on cell proliferation ([2]; HepG2 cells): showed no effect on cell proliferation; effect of pretreatment on (R,R′)-Fen signaling [4]: blocked (R,R′)-Fen signaling in 1321N1 cells; effect of pretreatment on anti-proliferative action of (R,R′)-MNF [5]: inactive against the anti-proliferative action of (R,R′)-MNF in U87MG cells; effect of preincubation on antiproliferative effect of MNF [6]: did not block the antiproliferative effect of MNF

`C[C@H](Cc1ccc(O)cc1)NC[C@@H](O)c1cc(O)cc(O)c1` [(S,R′)-Fen, fenoterol] was tested. Which “% Change in HepG2 cells” value ([2]; 24 h) did it give?
Its value is 28.7%.

With `C[C@H](Cc1ccc(N)cc1)NC[C@H](O)c1cc(O)cc(O)c1` [(R,R′)-aminoFen, (R,R′)-4′-aminofenoterol] as the compound, how does the “% Change in HepG2 cells” value ([2]; 24 h) read?
The value was “(R,R′): 54.37%”.

And the “fold more active than (R,R′)-Fen” value ([2]; [3H]-thymidine incorporation, HepG2)?
Its value is 3 fold.

And the “effect on proliferation / [3H]-thymidine incorporation” value [4]?
Its value is “markedly lower”.

How did the “% Change in HepG2 cells” value ([2]; 24 h) turn out when `COc1ccc(C[C@H](C)NC[C@H](O)c2cc(O)cc(O)c2)c2ccccc12` [(R,S′)-MNF, 4-methoxy-1-naphthylfenoterol] was run?
Its value is −68.1%.
